Literature values, collected in patent publication US20240156749A1, “Pre And Post Natal Compositions Including Carotenoids” (Maravilla, LLC, priority 2022, published 2024).

Tested on: oxygen-induced retinopathy
Details: mouse model of retinopathy of prematurity; prenatal supplementation

Row | Compound | inhibition of oxygen-induced retinopathy
1 | CC1=C[C@H](O)CC(C)(C)[C@H]1/C=C/C(C)=C/C=C/C(C)=C/C=C/C=C(C)/C=C/C=C(C)/C=C/C1=C(C)C[C@@H](O)CC1(C)C [lutein] | significantly inhibits oxygen-induced retinopathy
2 | CC1=C(/C=C/C(C)=C/C=C/C(C)=C/C=C/C=C(C)/C=C/C=C(C)/C=C/C2=C(C)C[C@@H](O)CC2(C)C)C(C)(C)C[C@H](O)C1 [zeaxanthin] | significantly inhibits oxygen-induced retinopathy
